Where two headings read alike, the source gives them in different places.
Test system: PANC-1 cells
Assay: cell viability assay in PANC-1 cells (compound alone, + 100 ng/ml TNFa, + 300 ng/ml TRAIL)
Type: cell-based
[1] = Homo sapiens, PANC-1, compound alone, Tables 6-10, read-out: IC50 (μM) in cell viability assay in PANC-1 cells: Compound alone
[2] = with 100 ng/ml TNFa, Tables 6-10, read-out: IC50 (μM) in cell viability assay in PANC-1 cells: Compound + 100 ng/ml TNFa
[3] = with 300 ng/ml TRAIL, Tables 6-10, read-out: IC50 (μM) in cell viability assay in PANC-1 cells: Compound + 300 ng/ml TRAIL
[4] = Homo sapiens, PANC-1, compound alone, Tables 15-18, read-out: IC50 (uM) in cell viability assay in PANC-1 cells: Cmpnd alone
[5] = with 100 ng/ml TNFa, Tables 15-18, read-out: IC50 (uM) in cell viability assay in PANC-1 cells: Cmpnd + 100 ng/ml TNFa
[6] = with 300 ng/ml TRAIL, Tables 15-18, read-out: IC50 (uM) in cell viability assay in PANC-1 cells: Cmpnd + 300 ng/ml TRAIL
[7] = Homo sapiens, PANC-1 cells, compound alone, read-out: IC50 (uM) in cell viability assay in PANC-1 cells, Cmpnd alone
[8] = PANC-1 cells, + 100 ng/ml TNFa, read-out: IC50 (uM) in cell viability assay in PANC-1 cells, Cmpnd + 100 ng/ml TNFa
[9] = PANC-1 cells, + 300 ng/ml TRAIL, read-out: IC50 (uM) in cell viability assay in PANC-1 cells, Cmpnd + 300 ng/ml TRAIL

Structure (SMILES) | IC50 [1] [µM] | IC50 [2] [µM] | IC50 [3] [µM] | further results
CN[C@@H](C)C(=O)Nc1nc(CC(=O)NC[C@@H](NC(=O)[C@@H]2CCCN2C(=O)[C@@H](NC(=O)[C@H](C)NC)C(C)(C)C)c2ccccc2)cs1 [Compound 193] | > 1 | > 1 | > 1 | 
CN[C@@H](C)C(=O)N[C@H](C(=O)N1C[C@@H](NC(=O)c2cccc(C(=O)N[C@H]3C[C@@H](C(=O)NC4CCCc5cc(F)ccc54)N(C(=O)[C@@H](NC(=O)[C@H](C)NC)C(C)(C)C)C3)c2)C[C@H]1C(=O)NC1CCCc2cc(F)ccc21)C(C)(C)C (single isomer, unassigned) [Compound 73] |  | 0.0698 | 0.073 | IC50 (compound alone, Tables 6-10, read-out: IC50 (μM) in cell viability assay in PANC-1 cells: Compound alone): > 1 µM
CCCC[C@H](C)NC(=O)c1cc(C(=O)N[C@H]2C[C@@H](C(=O)N[C@@H]3CCCc4ccccc43)N(C(=O)[C@@H](NC(=O)[C@H](C)NC)C(C)(C)C)C2)cc(C(=O)N[C@H]2C[C@@H](C(=O)N[C@@H]3CCCc4ccccc43)N(C(=O)[C@@H](NC(=O)[C@H](C)NC)C(C)(C)C)C2)c1 [Compound 130] | > 1 | 0.018 | 0.019 | 
CN[C@@H](C)C(=O)N[C@H](C(=O)N1C[C@@H](NC(=O)c2cc(C(=O)N[C@H]3C[C@@H](C(=O)N[C@H](C)Cc4ccccc4)N(C(=O)[C@@H](NC(=O)[C@H](C)NC)C(C)(C)C)C3)[nH]n2)C[C@H]1C(=O)N[C@H](C)Cc1ccccc1)C(C)(C)C [Compound 11] | > 1 | 0.834 | 0.545 | 
CN[C@@H](C)C(=O)N[C@H](C(=O)N1C[C@@H](NC(=O)c2cccc(C(=O)N[C@H]3C[C@@H](C(=O)NCc4ccc(O)c(OC)c4)N(C(=O)[C@@H](NC(=O)[C@H](C)NC)C(C)(C)C)C3)c2)C[C@H]1C(=O)NCc1ccc(O)c(OC)c1)C(C)(C)C [Compound 6] | > 1 | 0.471 | 0.31 | 
CN[C@@H](C)C(=O)N[C@H](C(=O)N1C[C@@H](NC(=O)c2ccc3cc(C(=O)NCC[C@H](NC(=O)[C@@H](NC(=O)[C@H](CO)NC)C4CCCCC4)C(=O)N[C@H](C)C(C)C)ccc3c2)C[C@H]1C(=O)N[C@@H]1CCCc2ccccc21)C(C)(C)C [Compound H-10] |  |  |  | IC50 [4]: > 1 µM; IC50 [5]: 0.001 µM; IC50 [6]: 0.0009 µM
CN[C@@H](C)C(=O)N[C@H](C(=O)N1CCCC1C(=O)N[C@H](COCC#CC#CCOC[C@@H](NC(=O)[C@H](C)NC(=O)[C@H](NC(=O)[C@@H](C)NC)C1CCCCC1)C(C)C)C1CCCCC1)C(C)(C)C (some centres unmarked) [Compound 209] |  | 0.0007 | 0.0007 | 
CN[C@@H](C)C(=O)N[C@H](C(=O)N1C[C@@H](NC(=O)C23CC4CC(C2)CC(C(=O)N[C@H]2C[C@@H](C(=O)N[C@H](C)c5ccccc5)N(C(=O)[C@@H](NC(=O)[C@H](C)NC)C(C)(C)C)C2)(C4)C3)C[C@H]1C(=O)N[C@H](C)c1ccccc1)C(C)(C)C [Compound P3-101] |  |  |  | IC50 [7]: > 1 µM; IC50 [8]: 0.001 µM; IC50 [9]: 0.001 µM
CN[C@@H](C)C(=O)N[C@H](C(=O)N1C[C@@H](NC(=O)c2cccc(C(=O)N[C@H]3C[C@@H](C(=O)N[C@@H]4CCCc5c(O)cccc54)N(C(=O)[C@@H](NC(=O)[C@H](C)NC)C(C)(C)C)C3)c2)C[C@H]1C(=O)N[C@@H]1CCCc2c(O)cccc21)C(C)(C)C (single isomer, unassigned) [Compound 60] | > 1 | 0.044 | 0.049 | 
CN[C@@H](C)C(=O)N[C@@H](CCCCCC[C@H](NC(=O)[C@H](C)NC)C(=O)N1CCC[C@H]1CNC(=O)c1c(OC)cccc1OC)C(=O)N1CCC[C@H]1CNC(=O)c1c(OC)cccc1OC [Compound 35] | > 1 | > 1 | > 1 | 
CN[C@@H](C)C(=O)N[C@H](C(=O)N1C[C@@H](NC(=O)c2cc(C(=O)N[C@H]3C[C@@H](C(=O)N[C@H](C)c4ccccc4)N(C(=O)[C@@H](NC(=O)[C@H](C)NC)C(C)(C)C)C3)n(C)n2)C[C@H]1C(=O)N[C@H](C)c1ccccc1)C(C)(C)C [Compound P3-107] |  |  |  | IC50 [7]: > 1 µM; IC50 [8]: 0.015 µM; IC50 [9]: 0.02 µM
CN[C@@H](C)C(=O)N[C@H](C(=O)N[C@@H](CCNC(=O)c1cccc(C(=O)N[C@H]2C[C@@H](C(=O)N[C@@H]3CCCc4ccccc43)N(C(=O)[C@@H](NC(=O)[C@H](C)NC)C(C)(C)C)C2)c1)C(=O)N[C@@H]1CCCc2ccccc21)C(C)C [Compound 170] | > 1 | 0.015 | 0.015 | 
CN[C@@H](C)C(=O)N[C@H](C(=O)N1C[C@@H](NC(=O)c2cccc(C(=O)N[C@H]3C[C@@H](C(=O)NC4CCOc5ccccc54)N(C(=O)[C@@H](NC(=O)[C@H](C)NC)C(C)(C)C)C3)c2)C[C@H]1C(=O)NC1CCOc2ccccc21)C(C)(C)C (single isomer, unassigned) [Compound 65] | > 1 | 0.265 | 0.328 | 
CN[C@@H](C)C(=O)N[C@H](C(=O)N[C@@H](CCNC(=O)c1cc(C(=O)N[C@H]2C[C@@H](C(=O)N[C@@H]3CCCc4ccccc43)N(C(=O)[C@@H](NC(=O)[C@H](C)NC)C(C)(C)C)C2)cc([N+](=O)[O-])c1)C(=O)N[C@H](C)C(C)C)C(C)C [Compound 179] | > 1 | 0.056 | 0.048 | 
CN[C@@H](C)C(=O)N[C@H](C(=O)N[C@@H](CCNC(=O)c1cccc(C(=O)N[C@H]2C[C@@H](C(=O)N[C@@H]3CCCc4ccccc43)N(C(=O)[C@@H](NC(=O)[C@H](C)NC)C(C)(C)C)C2)c1)C(=O)N[C@H](C)C(C)C)C(C)(C)C [Compound 176] | > 1 | 0.0199 | 0.0388 | 
C#CC[C@H](NC(=O)[C@H](C)NC)C(=O)N1C[C@@H](NC(=O)c2cccc(C(=O)N[C@H]3C[C@@H](C(=O)N[C@@H]4CCCc5ccccc54)N(C(=O)[C@@H](NC(=O)[C@H](C)NC)C(C)(C)C)C3)c2)C[C@H]1C(=O)N[C@@H]1CCCc2ccccc21 [Compound H-5] |  |  |  | IC50 [4]: > 1 µM; IC50 [5]: 0.008 µM; IC50 [6]: 0.009 µM
CN[C@@H](C)C(=O)N[C@H](C(=O)N[C@@H](CCNC(=O)c1cccc(C(=O)N[C@H]2C[C@@H](C(=O)N[C@@H]3CCCc4ccccc43)N(C(=O)[C@@H](NC(=O)[C@H](C)NC)C(C)(C)C)C2)c1)C(=O)N[C@@H]1CCCc2ccccc21)C(C)(C)C [Compound 169] | > 1 | 0.01 | 0.028 | 
CN[C@@H](C)C(=O)N[C@@H](CCCCCC[C@H](NC(=O)[C@H](C)NC)C(=O)N1CCC[C@H]1c1ncc(C(=O)Nc2ccccc2)o1)C(=O)N1CCC[C@H]1c1ncc(C(=O)Nc2ccccc2)o1 [Compound 39] | > 1 | > 1 | > 1 | 
CN[C@@H](C)C(=O)N[C@H](C(=O)N1C[C@@H](NC(=O)c2cccc(C(=O)N[C@H]3C[C@@H](C(=O)NCCc4ccc(O)c(O)c4)N(C(=O)[C@@H](NC(=O)[C@H](C)NC)C(C)(C)C)C3)c2)C[C@H]1C(=O)NCCc1ccc(O)c(O)c1)C(C)(C)C [Compound 9] | > 1 | > 1 | > 1 | 
CN[C@@H](C)C(=O)N[C@H](C(=O)N1C[C@@H](NC(=O)c2ccc(C(=O)N3CCN(C(=O)[C@H](C)NC)CC3)cc2)C[C@H]1C(=O)N[C@@H]1CCCc2ccccc21)C(C)(C)C [Compound 188] | > 1 | 0.56 | 0.55 | 
CN[C@@H](C)C(=O)N[C@@H](CC#CC#CC[C@H](NC(=O)[C@H](C)NC)C(=O)N1CCC[C@H]1CNC(=O)c1ccccn1)C(=O)N1CCC[C@H]1CNC(=O)c1ccccn1 [Compound 15] | > 1 | 0.209 | 0.235 | 
CCCC[C@@H](C)NC(=O)c1cc(C(=O)N[C@H]2C[C@@H](C(=O)N[C@@H]3CCCc4ccccc43)N(C(=O)[C@@H](NC(=O)[C@H](C)NC)C(C)(C)C)C2)cc(C(=O)N[C@H]2C[C@@H](C(=O)N[C@@H]3CCCc4ccccc43)N(C(=O)[C@@H](NC(=O)[C@H](C)NC)C(C)(C)C)C2)c1 [Compound 128] | > 1 | 0.01 | 0.014 | 
CN[C@@H](C)C(=O)N[C@H](C(=O)N1C[C@@H](NC(=O)C2CCCC(C(=O)N[C@H]3C[C@@H](C(=O)N[C@H](C)c4ccccc4)N(C(=O)[C@@H](NC(=O)[C@H](C)NC)C(C)(C)C)C3)C2)C[C@H]1C(=O)N[C@H](C)c1ccccc1)C(C)(C)C (some centres unmarked) [Compound P3-96] |  |  |  | IC50 [7]: > 1 µM; IC50 [8]: 0.055 µM; IC50 [9]: 0.006 µM
CN[C@@H](C)C(=O)N[C@@H](CCCCCC[C@H](NC(=O)[C@H](C)NC)C(=O)N1C[C@@H](F)C[C@H]1C(=O)N[C@@H]1CCCc2ccccc21)C(=O)N1C[C@@H](F)C[C@H]1C(=O)N[C@@H]1CCCc2ccccc21 [Compound 100] | > 1 | 0.057 | 0.052 | 
CN[C@@H](C)C(=O)NC(C(=O)N[C@@H](CCC(=O)NCc1cn([C@H]2C[C@@H](C(=O)N[C@@H]3CCCc4ccccc43)N(C(=O)[C@@H](NC(=O)[C@H](C)NC)C(C)(C)C)C2)nn1)C(=O)N[C@H](C)C(C)C)C(C)C (some centres unmarked) [Compound 202] | > 1 | 0.679 | 0.674 | 
CN[C@@H](C)C(=O)N[C@H](C(=O)N1C[C@@H](NC(=O)CC[C@@H](NC(=O)[C@H](NC(=O)[C@@H](C)NC)C(C)(C)C)C(=O)N[C@H]2CCCc3ccccc32)C[C@H]1C(=O)N[C@H](C)c1ccccc1)C(C)C [Compound 167] | > 1 | 0.06 | 0.1 | 
